In PMC4457528, “Identification of Novel Small Molecule Inhibitors of Oncogenic RET Kinase” (PLoS ONE, 2015):
Like-named read-outs stand apart in the source and are kept apart here.

Key:
Assay in all cases: KinomeScan kinase panel, single concentration 10 µM
Format in all cases: binding
[1] = molecular target: T1, KinomeScan kinase panel (Homo sapiens, UniProt O15264); settings: p38-delta, 10 µM; read-out: score (%)
T1 construct: purchased DiscoveRx (KinomeScan)
T1 sequence (O15264 1-365): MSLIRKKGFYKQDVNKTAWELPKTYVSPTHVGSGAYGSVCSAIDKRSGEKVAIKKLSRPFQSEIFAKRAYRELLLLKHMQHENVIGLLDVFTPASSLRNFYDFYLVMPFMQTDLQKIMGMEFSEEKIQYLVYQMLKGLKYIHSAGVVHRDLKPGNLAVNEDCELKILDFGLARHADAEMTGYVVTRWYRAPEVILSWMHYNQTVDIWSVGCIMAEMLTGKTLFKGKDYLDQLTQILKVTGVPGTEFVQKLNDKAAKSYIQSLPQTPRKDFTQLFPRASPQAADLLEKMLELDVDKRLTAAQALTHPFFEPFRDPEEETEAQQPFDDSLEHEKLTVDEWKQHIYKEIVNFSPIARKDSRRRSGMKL

[2] = molecular target: T2, KinomeScan kinase panel (Homo sapiens, UniProt P10721, D816V); settings: KIT(D816V), 10 µM; read-out: score (%)
T2 construct: purchased DiscoveRx (KinomeScan)

[3] = molecular target: T3, KinomeScan kinase panel (Homo sapiens, UniProt P11362); settings: FGFR1, 10 µM; read-out: score (%)
T3 construct: purchased DiscoveRx (KinomeScan)

[4] = molecular target: T4, KinomeScan kinase panel (Homo sapiens, UniProt P53778); settings: p38-gamma, 10 µM; read-out: score (%)
T4 construct: purchased DiscoveRx (KinomeScan)
T4 sequence (P53778 1-367): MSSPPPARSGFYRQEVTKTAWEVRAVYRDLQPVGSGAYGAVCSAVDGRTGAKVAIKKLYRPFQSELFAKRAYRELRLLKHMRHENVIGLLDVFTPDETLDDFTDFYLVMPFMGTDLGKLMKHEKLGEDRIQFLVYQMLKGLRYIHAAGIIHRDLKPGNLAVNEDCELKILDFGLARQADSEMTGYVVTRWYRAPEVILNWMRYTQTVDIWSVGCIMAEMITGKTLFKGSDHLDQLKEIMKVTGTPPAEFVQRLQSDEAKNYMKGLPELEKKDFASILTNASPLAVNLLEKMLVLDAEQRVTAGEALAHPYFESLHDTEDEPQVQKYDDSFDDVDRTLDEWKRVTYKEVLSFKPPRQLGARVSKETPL

[5] = molecular target: T5, KinomeScan kinase panel (Homo sapiens, UniProt P78368); settings: CSNK1G2, 10 µM
T5 construct: purchased DiscoveRx (KinomeScan)

[6] = molecular target: T6, KinomeScan kinase panel (Homo sapiens, UniProt Q12852); settings: DLK, 10 µM
T6 construct: purchased DiscoveRx (KinomeScan)
T6 sequence (Q12852 1-859): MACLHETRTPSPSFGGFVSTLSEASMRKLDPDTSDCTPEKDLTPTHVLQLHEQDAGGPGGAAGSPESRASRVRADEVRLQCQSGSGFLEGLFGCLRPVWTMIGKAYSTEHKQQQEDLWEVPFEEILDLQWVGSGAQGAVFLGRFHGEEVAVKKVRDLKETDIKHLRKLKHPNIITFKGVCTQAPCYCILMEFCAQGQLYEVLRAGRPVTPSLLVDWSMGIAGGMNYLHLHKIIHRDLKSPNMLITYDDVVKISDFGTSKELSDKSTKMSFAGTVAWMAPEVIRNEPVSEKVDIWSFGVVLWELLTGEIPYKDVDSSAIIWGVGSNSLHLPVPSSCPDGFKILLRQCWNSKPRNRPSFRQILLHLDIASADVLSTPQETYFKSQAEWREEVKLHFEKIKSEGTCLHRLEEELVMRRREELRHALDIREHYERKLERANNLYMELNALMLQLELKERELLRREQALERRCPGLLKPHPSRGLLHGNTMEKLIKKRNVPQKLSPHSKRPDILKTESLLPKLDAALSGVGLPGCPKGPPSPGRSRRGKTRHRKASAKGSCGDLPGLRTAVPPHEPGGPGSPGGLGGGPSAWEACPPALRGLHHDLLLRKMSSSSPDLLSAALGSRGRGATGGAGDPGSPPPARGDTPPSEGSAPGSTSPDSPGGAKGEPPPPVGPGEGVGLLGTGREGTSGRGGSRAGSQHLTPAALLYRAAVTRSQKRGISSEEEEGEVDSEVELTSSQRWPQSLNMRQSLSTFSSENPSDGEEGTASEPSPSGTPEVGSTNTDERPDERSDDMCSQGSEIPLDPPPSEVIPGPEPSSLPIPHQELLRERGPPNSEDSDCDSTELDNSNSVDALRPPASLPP

[7] = molecular target: T7, KinomeScan kinase panel (Homo sapiens, UniProt Q15139); settings: read-out: score (%)
T7 construct: purchased DiscoveRx (KinomeScan)
T7 sequence (Q15139 1-912): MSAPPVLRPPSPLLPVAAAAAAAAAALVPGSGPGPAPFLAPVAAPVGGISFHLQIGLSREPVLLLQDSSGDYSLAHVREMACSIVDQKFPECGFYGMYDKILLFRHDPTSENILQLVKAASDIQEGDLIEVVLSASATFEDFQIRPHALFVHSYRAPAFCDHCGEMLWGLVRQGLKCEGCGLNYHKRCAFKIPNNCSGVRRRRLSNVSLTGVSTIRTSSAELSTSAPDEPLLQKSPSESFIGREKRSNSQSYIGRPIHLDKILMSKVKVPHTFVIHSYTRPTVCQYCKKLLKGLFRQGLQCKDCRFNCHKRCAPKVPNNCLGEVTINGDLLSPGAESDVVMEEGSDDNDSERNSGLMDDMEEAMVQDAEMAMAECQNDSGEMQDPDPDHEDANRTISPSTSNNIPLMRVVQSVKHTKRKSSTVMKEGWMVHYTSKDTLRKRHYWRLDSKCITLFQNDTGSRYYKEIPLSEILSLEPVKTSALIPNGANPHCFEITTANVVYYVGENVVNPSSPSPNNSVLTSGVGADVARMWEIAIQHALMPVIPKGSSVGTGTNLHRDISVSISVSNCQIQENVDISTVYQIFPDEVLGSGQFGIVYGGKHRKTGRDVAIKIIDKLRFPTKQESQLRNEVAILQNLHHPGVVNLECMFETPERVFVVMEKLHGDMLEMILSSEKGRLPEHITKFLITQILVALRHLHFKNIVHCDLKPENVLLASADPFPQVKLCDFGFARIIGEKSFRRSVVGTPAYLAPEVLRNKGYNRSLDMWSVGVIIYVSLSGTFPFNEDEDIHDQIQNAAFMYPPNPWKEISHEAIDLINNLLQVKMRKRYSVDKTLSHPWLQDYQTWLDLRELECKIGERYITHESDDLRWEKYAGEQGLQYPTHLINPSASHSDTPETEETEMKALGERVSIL

[8] = molecular target: T8, KinomeScan kinase panel (Homo sapiens, UniProt Q9H3Y6); settings: 10 µM, read-out: score (%)
T8 construct: purchased DiscoveRx (KinomeScan)

[9] = molecular target: T9, KinomeScan kinase panel (Homo sapiens, UniProt Q9Y5S2); settings: MRCKB, 10 µM; read-out: score (%)
T9 construct: purchased DiscoveRx (KinomeScan)
T9 sequence (Q9Y5S2 whole entry): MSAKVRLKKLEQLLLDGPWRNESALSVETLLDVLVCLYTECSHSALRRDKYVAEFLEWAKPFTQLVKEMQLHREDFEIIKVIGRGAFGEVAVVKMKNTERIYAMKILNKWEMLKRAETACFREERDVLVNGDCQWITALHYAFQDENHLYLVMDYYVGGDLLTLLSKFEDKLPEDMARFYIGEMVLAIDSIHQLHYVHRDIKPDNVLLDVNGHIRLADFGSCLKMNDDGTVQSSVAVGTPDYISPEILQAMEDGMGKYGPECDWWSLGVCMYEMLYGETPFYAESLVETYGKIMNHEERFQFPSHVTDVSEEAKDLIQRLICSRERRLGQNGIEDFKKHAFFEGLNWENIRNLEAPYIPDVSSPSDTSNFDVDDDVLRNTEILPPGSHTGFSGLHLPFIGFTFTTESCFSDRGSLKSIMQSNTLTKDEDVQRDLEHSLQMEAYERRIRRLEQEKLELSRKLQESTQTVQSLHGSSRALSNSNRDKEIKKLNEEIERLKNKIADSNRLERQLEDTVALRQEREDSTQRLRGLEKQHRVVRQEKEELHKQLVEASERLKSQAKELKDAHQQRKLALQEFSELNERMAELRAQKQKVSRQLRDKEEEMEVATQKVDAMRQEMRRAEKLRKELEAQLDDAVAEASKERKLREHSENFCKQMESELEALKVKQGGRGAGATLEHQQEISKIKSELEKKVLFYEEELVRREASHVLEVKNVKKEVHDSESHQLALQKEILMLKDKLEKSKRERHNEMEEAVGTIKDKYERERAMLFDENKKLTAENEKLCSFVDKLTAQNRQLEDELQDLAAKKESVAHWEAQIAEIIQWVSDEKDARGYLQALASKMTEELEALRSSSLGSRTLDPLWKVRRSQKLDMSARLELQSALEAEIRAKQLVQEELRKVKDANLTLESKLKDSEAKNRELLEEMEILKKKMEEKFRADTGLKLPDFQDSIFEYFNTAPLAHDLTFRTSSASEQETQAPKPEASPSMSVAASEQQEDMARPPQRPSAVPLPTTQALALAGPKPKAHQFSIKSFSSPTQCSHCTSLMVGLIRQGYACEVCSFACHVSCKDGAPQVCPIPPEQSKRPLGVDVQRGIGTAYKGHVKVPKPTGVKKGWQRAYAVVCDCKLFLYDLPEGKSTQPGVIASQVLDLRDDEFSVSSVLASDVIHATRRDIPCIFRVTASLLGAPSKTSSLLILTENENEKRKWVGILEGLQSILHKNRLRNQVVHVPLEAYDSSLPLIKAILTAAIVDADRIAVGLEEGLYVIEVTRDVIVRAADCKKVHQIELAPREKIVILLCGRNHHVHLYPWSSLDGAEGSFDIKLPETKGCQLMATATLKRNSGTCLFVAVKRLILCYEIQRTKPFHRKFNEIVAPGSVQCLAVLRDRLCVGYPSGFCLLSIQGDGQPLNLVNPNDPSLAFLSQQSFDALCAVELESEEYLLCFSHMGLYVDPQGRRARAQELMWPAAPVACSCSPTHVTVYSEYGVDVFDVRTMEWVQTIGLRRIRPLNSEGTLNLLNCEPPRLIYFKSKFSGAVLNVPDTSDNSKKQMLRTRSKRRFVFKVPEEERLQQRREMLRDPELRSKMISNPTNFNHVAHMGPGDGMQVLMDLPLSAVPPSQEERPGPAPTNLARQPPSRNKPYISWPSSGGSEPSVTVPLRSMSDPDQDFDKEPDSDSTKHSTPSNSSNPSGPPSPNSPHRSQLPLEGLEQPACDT

T5 sequence (P78368 whole entry): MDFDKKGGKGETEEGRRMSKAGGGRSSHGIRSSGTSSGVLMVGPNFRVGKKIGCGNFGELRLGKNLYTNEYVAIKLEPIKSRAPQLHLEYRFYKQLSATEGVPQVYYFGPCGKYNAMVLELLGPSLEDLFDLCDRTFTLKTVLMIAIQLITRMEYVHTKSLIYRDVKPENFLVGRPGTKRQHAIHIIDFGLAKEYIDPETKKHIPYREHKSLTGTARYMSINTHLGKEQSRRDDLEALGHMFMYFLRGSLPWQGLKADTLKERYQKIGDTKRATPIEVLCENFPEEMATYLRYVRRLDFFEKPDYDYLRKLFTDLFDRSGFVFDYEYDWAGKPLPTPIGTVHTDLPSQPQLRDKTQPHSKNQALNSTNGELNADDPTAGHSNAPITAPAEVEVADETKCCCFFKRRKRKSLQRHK
T8 sequence (Q9H3Y6 whole entry): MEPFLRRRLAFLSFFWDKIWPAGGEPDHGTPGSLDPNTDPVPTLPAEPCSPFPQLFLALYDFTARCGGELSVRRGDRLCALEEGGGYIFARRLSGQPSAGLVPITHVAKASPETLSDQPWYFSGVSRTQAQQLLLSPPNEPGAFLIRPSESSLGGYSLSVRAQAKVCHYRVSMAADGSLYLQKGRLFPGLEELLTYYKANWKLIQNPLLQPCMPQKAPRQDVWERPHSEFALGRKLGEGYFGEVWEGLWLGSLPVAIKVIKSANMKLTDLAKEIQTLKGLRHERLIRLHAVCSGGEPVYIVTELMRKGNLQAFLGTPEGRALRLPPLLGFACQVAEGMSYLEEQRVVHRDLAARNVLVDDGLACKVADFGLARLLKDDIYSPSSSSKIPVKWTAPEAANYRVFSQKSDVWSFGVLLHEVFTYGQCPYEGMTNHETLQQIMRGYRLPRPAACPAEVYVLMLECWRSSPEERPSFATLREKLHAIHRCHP
T2 sequence (P10721 26-976 D816V): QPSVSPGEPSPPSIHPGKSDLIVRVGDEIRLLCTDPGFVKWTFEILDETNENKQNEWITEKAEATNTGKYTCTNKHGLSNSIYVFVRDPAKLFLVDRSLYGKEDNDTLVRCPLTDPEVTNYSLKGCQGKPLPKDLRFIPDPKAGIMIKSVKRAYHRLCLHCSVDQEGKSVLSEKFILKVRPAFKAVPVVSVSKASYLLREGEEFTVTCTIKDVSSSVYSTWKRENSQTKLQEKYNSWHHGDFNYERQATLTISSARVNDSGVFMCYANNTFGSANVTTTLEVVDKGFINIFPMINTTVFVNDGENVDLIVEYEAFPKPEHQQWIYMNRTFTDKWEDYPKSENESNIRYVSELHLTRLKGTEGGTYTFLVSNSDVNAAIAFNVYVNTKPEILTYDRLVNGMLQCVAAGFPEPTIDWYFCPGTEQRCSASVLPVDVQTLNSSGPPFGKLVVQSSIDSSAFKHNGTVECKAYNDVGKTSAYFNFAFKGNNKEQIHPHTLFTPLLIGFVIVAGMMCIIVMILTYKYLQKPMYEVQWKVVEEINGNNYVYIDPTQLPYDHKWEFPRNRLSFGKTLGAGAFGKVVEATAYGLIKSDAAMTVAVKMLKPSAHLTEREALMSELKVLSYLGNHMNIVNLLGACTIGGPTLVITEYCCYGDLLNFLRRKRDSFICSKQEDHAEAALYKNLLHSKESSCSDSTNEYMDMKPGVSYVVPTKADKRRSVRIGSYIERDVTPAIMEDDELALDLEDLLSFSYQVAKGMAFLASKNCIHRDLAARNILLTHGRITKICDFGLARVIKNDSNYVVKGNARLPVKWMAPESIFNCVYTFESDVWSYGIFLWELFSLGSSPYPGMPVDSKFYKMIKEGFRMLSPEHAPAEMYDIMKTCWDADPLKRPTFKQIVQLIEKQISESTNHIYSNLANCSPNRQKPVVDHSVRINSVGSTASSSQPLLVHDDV
T3 sequence (P11362 22-822): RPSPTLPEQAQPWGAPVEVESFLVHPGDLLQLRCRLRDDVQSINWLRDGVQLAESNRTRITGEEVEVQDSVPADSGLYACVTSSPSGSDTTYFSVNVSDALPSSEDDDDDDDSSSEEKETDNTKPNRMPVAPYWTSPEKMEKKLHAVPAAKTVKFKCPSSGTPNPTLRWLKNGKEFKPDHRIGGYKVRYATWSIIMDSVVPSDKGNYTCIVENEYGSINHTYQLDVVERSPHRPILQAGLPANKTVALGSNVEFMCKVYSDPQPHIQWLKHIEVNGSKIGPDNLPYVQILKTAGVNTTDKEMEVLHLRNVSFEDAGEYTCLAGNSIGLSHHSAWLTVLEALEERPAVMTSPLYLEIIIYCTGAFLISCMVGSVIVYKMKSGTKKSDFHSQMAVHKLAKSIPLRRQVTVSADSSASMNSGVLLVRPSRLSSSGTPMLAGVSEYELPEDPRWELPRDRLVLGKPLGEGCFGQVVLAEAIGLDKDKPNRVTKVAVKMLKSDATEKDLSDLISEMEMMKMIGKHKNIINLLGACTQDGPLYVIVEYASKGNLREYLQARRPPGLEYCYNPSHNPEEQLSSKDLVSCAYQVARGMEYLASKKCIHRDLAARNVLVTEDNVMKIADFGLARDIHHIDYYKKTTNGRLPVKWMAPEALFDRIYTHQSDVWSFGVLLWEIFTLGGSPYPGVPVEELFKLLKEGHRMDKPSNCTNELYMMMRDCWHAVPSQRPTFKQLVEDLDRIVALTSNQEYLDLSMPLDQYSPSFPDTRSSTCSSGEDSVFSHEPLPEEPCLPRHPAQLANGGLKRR

remaining binding at 10 µM ([8]; SRMS) [%]	Structure (SMILES)	remaining binding at 10 µM [1] [%]	remaining binding at 10 µM [2] [%]	remaining binding at 10 µM [3] [%]	remaining binding at 10 µM [4] [%]	score (%) [5]	score (%) [6] [%]	remaining binding at 10 µM ([7]; kinase PRKD1, 10 µM) [%]	remaining binding at 10 µM ([8]; kinase SRMS) [%]	remaining binding at 10 µM [9] [%]	remaining binding at 10 µM ([7]; PRKD1, 10 µM) [%]
	CCN1CCN(Cc2ccc(NC(=O)c3ccc(C)c(C#Cc4cccnc4)c3)cc2C(F)(F)F)CC1 [XMD15-44]	2.5	2	0.25	2.7	nb (Hits values higher than 30% were considered negative (no binding: nb))	9.8	51	0	> 30	
23	CCN1CCN(Cc2ccc(NC(=O)c3ccc(C)c(/C=C/c4cnc5[nH]ccc5c4Cl)c3)cc2C(F)(F)F)CC1 [HG-6-63-01, (E)-3-(2-(4-chloro-1H-pyrrolo[2,3-b]pyridin-5-yl)vinyl)-N-(4-((4-ethylpiperazin-1-yl)methyl)-3-(trifluoromethyl)phenyl)-4-methylbenzamide]	> 30	0.3	0.7	13	nb (Hits values higher than 30% were considered negative (no binding: nb))	5.5			30	> 30
	CCN1CCN(Cc2ccc(NC(=O)c3ccc(C)c(NC(=O)c4cncc(-c5cccs5)c4)c3)cc2C(F)(F)F)CC1 [ALW-II-41-27]	29	0.75	2.2	3.6	20%	28		2.8	> 30	> 30
